Experimental data reported in article PMC4517612 (MedChemComm, 2015).
Where “and” joins values, the source holds several entries; their conditions need not be identical. Equal values may be shown once. Read-outs that look alike come from different tables or passages of the source.

How the values were obtained:
[1] = test system: CCI model of neuropathic pain (mechanoallodynia) in mice; settings: 3 μmol/kg p.o., ref Tosh et al.[8], cited from earlier work
[2] = target: T1, hA3AR (Homo sapiens, UniProt P0DMS8); test: Radioligand binding at hA3AR
T1 sequence (P0DMS8 1-318): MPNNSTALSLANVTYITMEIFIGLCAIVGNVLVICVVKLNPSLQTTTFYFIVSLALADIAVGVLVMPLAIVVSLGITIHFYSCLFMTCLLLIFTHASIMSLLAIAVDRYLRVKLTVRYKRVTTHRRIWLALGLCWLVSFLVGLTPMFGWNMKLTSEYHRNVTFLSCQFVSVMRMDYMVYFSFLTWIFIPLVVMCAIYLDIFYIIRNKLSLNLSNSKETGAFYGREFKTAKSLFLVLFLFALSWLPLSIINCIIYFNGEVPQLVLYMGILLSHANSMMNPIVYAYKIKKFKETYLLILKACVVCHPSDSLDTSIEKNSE

[3] = test system: CCI model of neuropathic pain (mechanoallodynia) in mice; test: Mouse CCI model of neuropathic pain; format: in vivo; settings: 3 μmol/kg p.o.; for reversal of mechanoallodynia at 1 h (in words): 1 h after drug treatment; for reversal of mechanoallodynia at 1 h (in words) / duration of action in vivo (in words): CCI mice

| Compound | reversal of mechanoallodynia at 1 h (in words) [3] | duration of action in vivo (in words) [3] | other results |
| --- | --- | --- | --- |
| CNC(=O)[C@@]12C[C@@H]1[C@@H](n1cnc3c(NCc4cccc(Cl)c4)nc(C#Cc4ccc(F)c(F)c4)nc31)[C@H](O)[C@@H]2O [Compound 1] |  |  | Effect at 3h (% ± SEM), pain protection [1]: 24% and 23.7 ± 10.8%; Max. effect Emax (% ± SEM), reversal of reduction in PWT of ipsilateral hind paw [1]: 100 ± 0.0% |
| CNC(=O)[C@@]12C[C@@H]1[C@@H](n1cnc3c(NC)nc(C#Cc4ccc(Cl)s4)nc31)[C@H](O)[C@@H]2O [Compound 2] |  |  | Effect at 3h (% ± SEM), pain protection [1]: 83% and 82.8 ± 11.2%; Max. effect Emax (% ± SEM), reversal of reduction in PWT of ipsilateral hind paw [1]: 93.3 ± 6.7% |
| CNC(=O)[C@@]12C[C@@H]1[C@@H](n1cnc3c(NC)nc(-n4cc(-c5ncccn5)nn4)nc31)[C@H](O)[C@@H]2O [Compound 9] | nearly completely reversed |  | ligand efficiency with respect to A3AR affinity [2]: 0.27 |
| CNC(=O)[C@@]12C[C@@H]1[C@@H](n1cnc3c(NC)nc(-n4cc(-c5cnn(C)c5)nn4)nc31)[C@H](O)[C@@H]2O [Compound 11] | nearly completely reversed |  |  |
| CCNc1nc(-n2cc(-c3ccc(Cl)s3)nn2)nc2c1ncn2[C@H]1[C@H](O)[C@H](O)[C@]2(C(=O)NC)C[C@H]12 [Compound 15] | nearly completely reversed |  |  |
| CNC(=O)[C@@]12C[C@@H]1[C@@H](n1cnc3c(NC4CCC4)nc(-n4cc(-c5ccc(Cl)s5)nn4)nc31)[C@H](O)[C@@H]2O [Compound 16] |  | prolonged in activity |  |
| CNC(=O)[C@@]12C[C@@H]1[C@@H](n1cnc3c(NCc4cccc(Cl)c4)nc(-n4cc(-c5ccc(Cl)s5)nn4)nc31)[C@H](O)[C@@H]2O [Compound 17] |  | nearly full protection up to 4 h | Effect at 3h (% ± SEM), pain protection ([3]; day 7 after CCI, mice, 3 h after administration): > 90% |
| CNC(=O)[C@@]12C[C@@H]1[C@@H](n1cnc3c(NCCc4ccccc4)nc(-n4cc(-c5ccc(Cl)s5)nn4)nc31)[C@H](O)[C@@H]2O [Compound 18] |  | prolonged in activity |  |
| CNC(=O)[C@@]12C[C@@H]1[C@@H](n1cnc3c(NC)nc(-n4cc(-c5ccc(Br)s5)nn4)nc31)[C@H](O)[C@@H]2O [Compound 19] | nearly completely reversed |  |  |
